{
  "source": "patent US6407081B1",
  "about": "“Method for inhibiting cytokine production by cells” (Previsan AG, priority 1997, dated 2002)",
  "key": {"interferon-γ": {"system": "interferon-γ", "assay": "Interferon-γ production by PHA-activated PBMC (Example 2)", "type": "cell-based, human", "conditions": "for Interferon-γ content as a percentage of the control: PHA-activated PBMC, 72 h", "procedure": "Peripheral mononuclear blood cells (PMBC) from five healthy human donors are isolated in the conventional manner from 50 ml of their blood and then purified by density gradient centrifugation (Lymphoprep). The cells (5.10^6 cells/ml) are activated by 0.3 μg/ml of phytohaemagglutinin (PHA) and cultured for 72 hours at 37° C. in the presence of various concentrations of ADA (20, 10, 5, 1, 0.2 and 0.04 μg/ml). The culture medium consists of RPMI 1640 complemented with 10% foetal calf serum and glutamine and contains mercaptoethanol. The ADA solutions are prepared in dimethyl sulfoxide (DMSO), the working concentration of DMSO during the experiments being 0.1%. Said experiments are performed on 96 well plates (200 μl/well) and, once the plates have been centrifuged at 1500 revolutions per minute for 10 minutes, the supernatants are harvested and the IL-5 content thereof analysed by an ELISA immunoenzymatic assay.\nStarting from the same cell cultures as those used in Example 1, the presence of interferon-γ was investigated after treatment with the stated concentrations of ADA."}, "IL-2": {"system": "IL-2", "assay": "IL-2 production by purified T lymphocytes (Example 3)", "type": "cell-based, human", "conditions": "mean of 2 donors", "procedure": "PBMC from three healthy donors are purified by density gradient […] (LymphoPrep). The T lymphocytes are obtained from 15.10^6 PBMC incubated for 20 to 30 minutes in a waterbath at 37° C. with 0.8 ml of a mixture of LymphoKwik® (One Lambda, Inc., CA, USA). This latter substance is a mixture of complement and specific antibody for antigen units of the cell membrane which lyses the unwanted cells (B lymphocytes, monocytes, etc.). The cells are centrifuged and then washed twice.\nThese cultures are treated with various concentrations of ADA.\nIn Examples 3 and 4, the results are stated as a percentage taking the medium without ADA as 100%. The concentrations corresponding to 100% are respectively 90,000 pg/ml for IL-2, 1100 pg/ml for IL-5, 1900 pg/ml for IFN-γ and 2870 pg/ml for TNF-α. The results are the mean of independent ELISA assays."}, "IL-4": {"system": "IL-4", "assay": "In vivo serum IL-4 release after anti-CD3 145-2C11 mAb (Example 5)", "design": "species or system BALB/C mice", "conditions": "ADA 100 mg/kg single injection one day before 145-2C11 mAb; sera at 2, 4, 8, 24 h; FIG. 2", "procedure": "A single intraparenteral injection of azodicarbon-amide (ADA) at a dose of 100 mg/kg bodyweight or corresponding carrier is made into BALB/C mice (Harlan, Zeist, Netherlands) one day before intraparenteral inoculation of 25 μg of hamster 145-2C11 mAb, an anti-mouse CD3 mAb which brings about massive in vivo activation of polyclonal T cells, resulting in systemic cytokine release. Sera are collected 2, 4, 8 and 24 hours after the anti-CD3 treatment and the cytokine (IL-2, IL-4) levels are determined by an ELISA test (Genzyme).\nFIGS. 1 and 2 are graphs showing, on the y-axis, the quantities of IL-2 and IL-4 in the serum as a mean of 5 test animals. […] The empty bars show the results obtained with the carrier and the shaded bars show those obtained with prior ADA treatment."}, "skin allograft": {"system": "skin allograft", "assay": "Skin allograft rejection (Example 6)", "type": "in vivo, C57BL/6 mice", "conditions": "ADA 50 mg/kg daily injection vs carrier control; FIG. 3", "procedure": "Skin grafts, which are well known to be highly dependent upon T cells, are prepared from the tails of four female C57BL/6. CH-2^bm12 mice (Jackson Laboratory, Bar Harbor, Me., USA). These grafts are grafted onto the sides of C57BL/6 mice (Harlan, Zeist, Netherlands). A dressing is applied around the hole. This dressing is removed 10 days later and the grafts are inspected daily. The test mice receive a daily intraparenteral injection of 50 mg/kg bodyweight of ADA and the controls receive an equivalent quantity of the corresponding carrier until acute rejection is observed.\nOn the graph in FIG. 3, survival of the skin graft is plotted, in %, on the y-axis, while the number of days since the transplant is plotted on the x-axis."}, "IFN-γ": {"system": "IFN-γ", "assay": "IFN-γ production by splenocytes of ovalbumin-sensitised rats treated orally (Example 8)", "type": "in vivo, Brown-Norway rats", "conditions": "ADA orally 500 and 1000 mg/kg twice daily, FIG. 4", "procedure": "Brown-Norway rats are actively sensitised with 5% ovalbumin in 0.9% NaCl. 24 hours later, bronchial reactivity to metacholine is measured on the anaesthetised rats. Immediately measurement of bronchial reactivity is complete, splenocytes are taken from these rats and cultured to determine IFN-γ production by these cells.\nADA is administered 24 hours before the beginning of the ovalbumin sensitisation phase and daily throughout the duration of the test, except for the days of the measurements. The ADA is administered orally in suspension in 1% methylcellulose at a twice daily dosage of 500 mg/kg and 1000 mg/kg bodyweight.\nThe quantities of IFN-γ are plotted on the y-axis in pg/mg of protein. On the x-axis, the empty bars A to F correspond to the following experiments: […]"}},
  "data": [
    {"smiles": "NC(=O)N=NC(N)=O", "note": "[ADA, azodicarbon-amide]", "values": [
      {"measurement": "Interferon-γ content as a percentage of the control", "setting": "interferon-γ; ADA 0.04 μg/ml, Donor 1", "value": "62 % of control"},
      {"measurement": "Interferon-γ content as a percentage of the control", "setting": "interferon-γ; ADA 0.04 μg/ml, Donor 2", "value": "53 % of control"},
      {"measurement": "Interferon-γ content as a percentage of the control", "setting": "interferon-γ; ADA 0.04 μg/ml, Donor 3", "value": "99 % of control"},
      {"measurement": "Interferon-γ content as a percentage of the control", "setting": "interferon-γ; ADA 0.04 μg/ml, Donor 4", "value": "82 % of control"},
      {"measurement": "Interferon-γ content as a percentage of the control", "setting": "interferon-γ; ADA 0.04 μg/ml, Donor 5", "value": "38 % of control"},
      {"measurement": "Interferon-γ content as a percentage of the control", "setting": "interferon-γ; ADA 0.04 μg/ml, Mean of donors", "value": "67 % of control"},
      {"measurement": "Interferon-γ content as a percentage of the control", "setting": "interferon-γ; ADA 0.2 μg/ml, Donor 1", "value": "112 % of control"},
      {"measurement": "Interferon-γ content as a percentage of the control", "setting": "interferon-γ; ADA 0.2 μg/ml, Donor 2", "value": "111 % of control"},
      {"measurement": "Interferon-γ content as a percentage of the control", "setting": "interferon-γ; ADA 0.2 μg/ml, Donor 3", "value": "70 % of control"},
      {"measurement": "Interferon-γ content as a percentage of the control", "setting": "interferon-γ; ADA 0.2 μg/ml, Mean of donors (donors 4, 5 not given)", "value": "98 % of control"},
      {"measurement": "Interferon-γ content as a percentage of the control", "setting": "interferon-γ; ADA 1 μg/ml, Donor 1", "value": "87 % of control"},
      {"measurement": "Interferon-γ content as a percentage of the control", "setting": "interferon-γ; ADA 1 μg/ml, Donor 2", "value": "98 % of control"},
      {"measurement": "Interferon-γ content as a percentage of the control", "setting": "interferon-γ; ADA 1 μg/ml, Donor 3", "value": "49 % of control"},
      {"measurement": "Interferon-γ content as a percentage of the control", "setting": "interferon-γ; ADA 1 μg/ml, Mean of donors (donors 4, 5 not given)", "value": "78 % of control"},
      {"measurement": "Interferon-γ content as a percentage of the control", "setting": "interferon-γ; ADA 5 μg/ml, Donor 1", "value": "68 % of control"},
      {"measurement": "Interferon-γ content as a percentage of the control", "setting": "interferon-γ; ADA 5 μg/ml, Donor 2", "value": "128 % of control"},
      {"measurement": "Interferon-γ content as a percentage of the control", "setting": "interferon-γ; ADA 5 μg/ml, Donor 3", "value": "62 % of control"},
      {"measurement": "Interferon-γ content as a percentage of the control", "setting": "interferon-γ; ADA 5 μg/ml, Donor 4", "value": "57 % of control"},
      {"measurement": "Interferon-γ content as a percentage of the control", "setting": "interferon-γ; ADA 5 μg/ml, Donor 5", "value": "25 % of control"},
      {"measurement": "Interferon-γ content as a percentage of the control", "setting": "interferon-γ; ADA 5 μg/ml, Mean of donors", "value": "68 % of control"},
      {"measurement": "Interferon-γ content as a percentage of the control", "setting": "interferon-γ; ADA 10 μg/ml, Donor 1", "value": "23 % of control"},
      {"measurement": "Interferon-γ content as a percentage of the control", "setting": "interferon-γ; ADA 10 μg/ml, Donor 2", "value": "169 % of control"},
      {"measurement": "Interferon-γ content as a percentage of the control", "setting": "interferon-γ; ADA 10 μg/ml, Donor 3", "value": "43 % of control"},
      {"measurement": "Interferon-γ content as a percentage of the control", "setting": "interferon-γ; ADA 10 μg/ml, Mean of donors (donors 4, 5 not given)", "value": "78 % of control"},
      {"measurement": "Interferon-γ content as a percentage of the control", "setting": "interferon-γ; ADA 20 μg/ml, Donor 1", "value": "21 % of control"},
      {"measurement": "Interferon-γ content as a percentage of the control", "setting": "interferon-γ; ADA 20 μg/ml, Donor 2", "value": "86 % of control"},
      {"measurement": "Interferon-γ content as a percentage of the control", "setting": "interferon-γ; ADA 20 μg/ml, Donor 3", "value": "40 % of control"},
      {"measurement": "Interferon-γ content as a percentage of the control", "setting": "interferon-γ; ADA 20 μg/ml, Donor 4", "value": "25 % of control"},
      {"measurement": "Interferon-γ content as a percentage of the control", "setting": "interferon-γ; ADA 20 μg/ml, Donor 5", "value": "16 % of control"},
      {"measurement": "Interferon-γ content as a percentage of the control", "setting": "interferon-γ; ADA 20 μg/ml, Mean of donors", "value": "38 % of control"},
      {"measurement": "inhibition of interferon-γ production, number of donors", "setting": "interferon-γ; PBMC of 5 donors, ADA 0.04-20 μg/ml", "value": "inhibition is observed in 4 out of 5 donors"},
      {"measurement": "IL-2 in % relative to control", "setting": "IL-2; ADA 1 μg/ml", "value": "68 % relative to control"},
      {"measurement": "IL-2 in % relative to control", "setting": "IL-2; ADA 5 μg/ml", "value": "27 % relative to control"},
      {"measurement": "IL-2 in % relative to control", "setting": "IL-2; ADA 10 μg/ml", "value": "9 % relative to control"},
      {"measurement": "IL-2 in % relative to control", "setting": "IL-2; ADA 20 μg/ml", "value": "3 % relative to control"},
      {"measurement": "release of IL-4 into serum", "setting": "IL-4", "value": "significant reduction"},
      {"measurement": "rejection of the skin allograft", "setting": "skin allograft", "value": "significantly delayed"},
      {"measurement": "production of INF-γ by splenocytes", "setting": "IFN-γ", "value": "inhibitory effect"}
    ]}
  ]
}
